Measured values from patent US10189826B2, “Heterocyclic compounds and methods of use” (Medivation Technologies LLC, priority 2015, dated 2019).
Where a name gives a salt, the structure may show the parent alone. Read-outs that look alike come from different tables or passages of the source.

What was measured:
Type in all cases: cell-based
[1] = system: SREBP-2 transcriptional activity (SREBP2 cleavage) in HepG2_LSSprom cells; test: Luciferase reporter driven by a SREBP-2 specific promoter in HepG2_LSSprom cells; details: for IC50: read-out: SREBP2 Cleavage (IC50 μM) 24 h
Summary of the method: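 HepG2_LSSprom cells dosed at 0.625-10 μM in serum-free medium for 6 h (or 24 h), then luciferase luminescence read. Signal normalized to vehicle (100%); IC50 by four-parameter nonlinear fit; five independent experiments, triplicate wells.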

[2] = system: HepG2_LSSprom cells; test: Cytotoxicity assay (LDH release) in HepG2_LSSprom cells
Summary of the method: (§1)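 HepG2_LSSprom cells exposed to compound at 0.625–10 μM in serum-free medium for 6 h or 24 h. Medium LDH measured colorimetrically at 490 nm; release expressed as % of lysis control after vehicle subtraction, negatives set to 0; five independent experiments, triplicate wells, mean±SEM.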

[3] = as above; details: human, HepG2 LSSprom cells, 24 h treatment, LDH release
Summary of the method: as §1

[4] = 24 h, 24 h treatment, HepG2_LSSprom cells

Structure (SMILES)	IC50 [1, 4]	IC50 at 24 h [3]	other results
CC1(N)CCCN(C(=O)c2ccc(-c3cc(-c4ccnc(C(C)(C)C)c4)cs3)c(Cl)c2)C1 (single isomer, unassigned) [Compound 95b]	–	–	IC50 ([1]; 24 h treatment, HepG2_LSSprom cells): 0.65 µM; IC50 ([2]; 24 h treatment, LDH release): > 10 µM
O=C(c1ccc(-c2csc(-c3cccc4[nH]ccc34)n2)c(Cl)c1)N1CCCCC1 [Compound 4, [3-chloro-4-[2-(1H-indol-4-yl)thiazol-4-yl]phenyl]-(1-piperidyl)methanone]	–	–	SREBP2 Cleavage (5 μM) (% Inh) ([1]; 5 μM, HepG2_LSSprom cells, medium without FBS): 48 % Inh; Cytotoxicity (5 μM) % ([2]; 5 μM, LDH release relative to lysis control): 1%
CC(C)(C)c1cc(-c2csc(-c3ccc(C(=O)N4CC[C@@H](N)C4)cc3Cl)c2)ccn1 [Compound 96a, (3R)-1-{4-[4-(2-tert-butylpyridin-4-yl)thiophen-2-yl]-3-chlorobenzoyl}pyrrolidin-3-amine]	1.4 µM	> 10 µM	–
CC(C)(C)c1cc(-c2csc(-c3ccc(C(=O)N4CC[C@H](N)C4)cc3Cl)c2)ccn1 [Compound 96b, (3S)-1-{4-[4-(2-tert-butylpyridin-4-yl)thiophen-2-yl]-3-chlorobenzoyl}pyrrolidin-3-amine]	0.6 µM	> 10 µM	–
CC(C)(C)c1cc(-c2csc(-c3ccc(C(=O)N4CCCc5ncccc54)cc3Cl)c2)ccn1 [Compound 97, 1-{4-[4-(2-tert-butylpyridin-4-yl)thiophen-2-yl]-3-chlorobenzoyl}-1,2,3,4-tetrahydro-1,5-naphthyridine]	0.17 µM	> 3 µM	–
CC(C)(C)c1cc(-c2nc(-c3ccc(C(=O)N4CCC(O)CC4)cc3Cl)c[nH]2)ccn1 [Compound 98, 1-{4-[2-(2-tert-butylpyridin-4-yl)-1H-imidazol-4-yl]-3-chlorobenzoyl}piperidin-4-ol]	–	> 10 µM	IC50 ([1]; 24 h): 0.99 µM
COC1CCCN(C(=O)c2ccc(-c3cc(-c4ccnc(C(C)(C)C)c4)cs3)c(Cl)c2)C1 (centres unmarked) [Compound 99, 2-tert-butyl-4-{5-[2-chloro-4-(3-methoxypiperidine-1-carbonyl)phenyl]thiophen-3-yl}pyridine]	–	> 10 µM	IC50 ([1]; 24 h): 0.051 µM
CC1(O)CCN(C(=O)c2ccc(-c3cc(-c4ccnc(C(C)(C)C)c4)cs3)c(Cl)c2)CC1 [Compound 100, 1-{4-[4-(2-tert-butylpyridin-4-yl)thiophen-2-yl]-3-chlorobenzoyl}-4-methylpiperidin-4-ol]	0.74 µM	> 10 µM	–
CC(C)(C)c1cc(-c2csc(-c3ccc(C(=O)N4CCC[C@](C)(O)C4)cc3Cl)c2)ccn1 [Compound 101a, [4-[4-(2-tert-butyl-4-pyridyl)-2-thienyl]-3-chloro-phenyl]-[(3S)-3-hydroxy-3-methyl-1-piperidyl] methanone hydrochloride]	0.15 µM	> 10 µM	–
CC(C)(C)c1cc(-c2csc(-c3ccc(C(=O)N4CCC[C@](C)(O)C4)cc3Cl)c2)ccn1 [Compound 101b, (3S)-1-{4-[4-(2-tert-butylpyridin-4-yl)thiophen-2-yl]-3-chlorobenzoyl}-3-methylpiperidin-3-ol]	0.025 µM	> 10 µM	–
CC(C)CCn1nccc1-c1cc(-c2ccc(C(=O)N3CCOCC3)cc2Cl)cs1 [Compound 102, [3-chloro-4-[5-(2-isopentylpyrazol-3-yl)-3-thienyl]phenyl]-morpholino-methanone]	0.44 µM	> 10 µM	–
CC(C)CCn1nccc1-c1cc(-c2ccc(C(=O)N3CCC(F)(F)CC3)cc2Cl)cs1 [Compound 103, [3-chloro-4-[5-(2-isopentylpyrazol-3-yl)-3-thienyl]phenyl]-(4,4-difluoro-1-piperidyl)methanone]	0.69 µM	> 10 µM	–
CC(C)CCn1nccc1-c1csc(-c2ccc(C(=O)N3CCCC(O)C3)cc2Cl)c1 (centres unmarked) [Compound 104, [3-chloro-4-[4-(2-isopentylpyrazol-3-yl)-2-thienyl]phenyl]-(3-hydroxy-1-piperidyl)methanone]	0.13 µM	> 10 µM	–
